From patent US20110136766A1, “AURORA KINASE INHIBITORS” (Vitae Pharmaceuticals, Inc., priority 2008, published 2011)

Legend:
HL-60 = test: CellTiter-Glo cell viability assay, HL-60; format: cell-based; conditions: Homo sapiens, HL-60; Leukemia; 72 hrs; 50% growth inhibition relative to control; read-out: HL-60 IC50
Source text: (§1) The CellTiter-Glo® Luminescent Cell Viability Assay is a homogeneous method of determining the number of viable cells in culture based on quantitation of the ATP present, which signals the presence of metabolically active cells. The homogeneous assay procedure involves addition of a single reagent directly to cells cultured in serum-supplemented medium. The homogeneous format results in cell lysis and generation of a luminescent signal proportional to the amount of ATP present. The CellTiter-Glo® Assay relies on the properties of a proprietary thermostable luciferase (Ultra-Glo. Recombinant Luciferase), which generates a stable glow-type Luminescent signal. The half-life of the luminescent signal resulting from this reaction is greater than five hours. This extended half-life eliminates the need for reagent injectors and provides flexibility for continuous or batch-mode processing of multiple plates. The unique homogeneous format reduces pipetting errors that may be introduced during the multiple steps required by other ATP-measurement methods.
(§2) 96 Well cell culture plates were seeded with 10^3 mammalian cells (Colo205, HL-60, SW620, HCT116, MCF-7 and MV-411) in 100 μl culture medium. The cells were incubated overnight prior to initiating the assay. Control wells were prepared on a plate containing medium only to obtain a value for background luminescence.
(§3) Compounds to be tested were added to experimental wells and incubated for 72 hrs (Colo205, HL-60, MV-411), 168 hrs (HCT116, SW620) or 240 hrs (MCF-7). Wells were also set up to as vehicle controls with the addition of 0.1% DMSO. At the end of the incubation period, the plates were equilibrated to room temperature for approximately 30 minutes.
(§4) Lyophilized CellTiter-Glo® Substrate and the CellTiter-Glo® Buffer were warmed to room temperature. The CellTiter-Glo® Buffer was mixed with the CellTiter-Glo® Substrate to reconstitute the lyophilized enzyme/substrate mixture. This forms the CellTiter-Glo® Reagent. The contents were mixed by gently vortexing, swirling or by inverting the contents to obtain a homogeneous solution. 100 μl of CellTiter-Glo® Reagent was added to the cell culture medium present in each well. The contents were mixed for 2 minutes on an orbital shaker to induce cell lysis. The plates were allowed to incubate at room temperature for 10 minutes to stabilize luminescent signal. The contents of the 96 well cell culture plate were then transferred to a white 96 well Optiplate (Perkin Elmer). The luminescence was recorded on Wallac 1420 VICTOR^2 V Multilabel Platereader (An integration time of 0.25-1 second per well).
(§5) 10 mM DMSO stock Compounds were serially diluted threefold in DMSO. Subsequent dilutions made into cell culture media prior to addition to cells to maintain the DMSO concentration at or below 0.1% to avoid cell toxicity.
(§6) The IC50s in Table 2 are the concentration at which 50% growth inhibition relative to control occurs.

[1] = target: T1, full-length human Aurora B/INCENP complex (Homo sapiens, UniProt Q96GD4); test: Aurora B phosphocellulose filter binding kinase activity assay; format: biochemical; conditions: 1.5 nM Aurora B/INCENP complex, 10 μM ATP, 50 μM Kemptide, 45 min; read-out: Aur-B IC50
T1 construct: the full-length human Aurora B (N-terminal GST fusion); GST (N); purchased Carna BioSciences, Japan
Description: (§7) Kinase activity of Aurora kinases was measured by phosphocellulose filter binding assay. The full-length human Aurora A carrying His6 tag at the N-terminus (Invitrogen, Carlsbad, Calif.) and the full-length human Aurora B (N-terminal GST fusion) co-expressed and co-purified with the His6-INCENP INBOX, aminoacids 803-918 (Carna BioSciences, Japan) were used as the enzyme in the assays. Tested compounds were diluted in DMSO and pre-incubated with the enzyme and ATP/Mg^2+ mixture for at least 10 minutes. The reaction was started by addition of the Kemptide peptide substrate (LRRASLG) and allowed to proceed for 45 min at room temperature. Each reaction in a final volume of 40 μl contained 50 μM Kemptide, 10 μM [γ-^33P]ATP (1 Ci/mmol) and either 11 nM Aurora A or 1.5 nM Aurora B/INCENP complex in the buffer containing 10 mM MgCl2, 5% DMSO, 20 mM MOPS, pH 7.2, 25 mM β-glycerol phosphate, 5 mM EGTA, 1 mM Na3VO4 and either 0.1 mg/ml of BSA and 1 mM DTT for Aurora A or 0.01% Triton-X100 and 2 mM DTT for Aurora B. The reaction was stopped with 25 μl of 5% H3PO4, and 45 μl of the mixture was transferred into a MultiScreen-PH filterplate (Millipore) pre-washed with 0.85% H3PO4. The filterplate was washed 4 times with 200 μl of 0.85% H3PO4 on a vacuum manifold. Scintillation fluid (50 μl of Ultima Gold™ LLT, PerkinElmer, Waltham, Mass.) was added to each well, and after 1-hr incubation at room temperature the plates were counted on MicroBeta (PerkinElmer, Waltham, Mass.) plate reader. […] Percent inhibition values were calculated based on the counts of the positive and negative controls, and these values were regressed against inhibitor concentration and fit into a four parameter model. From this fit the IC50 values (the inhibitor concentration at which 50% inhibition occurs) were derived as the inflection point on the semi-logarithm inhibition curve.

[2] = target: T2, full-length human Aurora A (Homo sapiens, UniProt O14965); test: Aurora A phosphocellulose filter binding kinase activity assay; format: biochemical; conditions: 11 nM Aurora A, 10 μM ATP, 50 μM Kemptide, 45 min; read-out: Aur-A IC50
T2 construct: The full-length human Aurora A carrying His6 tag at the N-terminus; His6 (N); purchased Invitrogen, Carlsbad, Calif
T2 sequence (O14965 1-403): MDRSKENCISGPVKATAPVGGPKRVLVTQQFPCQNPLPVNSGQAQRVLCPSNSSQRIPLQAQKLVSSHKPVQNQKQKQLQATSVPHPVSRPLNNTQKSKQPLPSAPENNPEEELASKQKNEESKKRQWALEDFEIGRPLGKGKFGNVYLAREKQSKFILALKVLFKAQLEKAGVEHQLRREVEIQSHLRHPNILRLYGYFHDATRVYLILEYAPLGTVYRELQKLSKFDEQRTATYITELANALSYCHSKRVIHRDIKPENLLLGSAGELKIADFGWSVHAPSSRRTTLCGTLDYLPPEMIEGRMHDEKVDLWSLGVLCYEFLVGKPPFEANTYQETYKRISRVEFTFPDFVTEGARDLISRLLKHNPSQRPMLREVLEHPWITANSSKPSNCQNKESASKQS
Description: as §7

HCT116 = test: CellTiter-Glo cell viability assay, HCT116; format: cell-based; conditions: Homo sapiens, HCT-116; Colorectal cancer; 168 hrs; 50% growth inhibition relative to control; read-out: HCT116 IC50
Source text: as §1, §2, §3, §4, §5, §6

MV-411 = test: CellTiter-Glo cell viability assay, MV-411; format: cell-based; conditions: Homo sapiens, MV4-11; Leukemia; 72 hrs; 50% growth inhibition relative to control; read-out: MV-411 IC50
Source text: as §1, §2, §3, §4, §5, §6

Colo205 = test: CellTiter-Glo cell viability assay, Colo205; format: cell-based; conditions: Homo sapiens, COLO 205; Colorectal cancer; 72 hrs; 50% growth inhibition relative to control; read-out: Colo205 IC50
Source text: as §1, §2, §3, §4, §5, §6

MCF-7 = test: CellTiter-Glo cell viability assay, MCF-7; format: cell-based; conditions: Homo sapiens, MCF7; Breast Cancer; 240 hrs; 50% growth inhibition relative to control; read-out: MCF-7 IC50
Source text: as §1, §2, §3, §4, §5, §6

SW620 = test: CellTiter-Glo cell viability assay, SW620; format: cell-based; conditions: Homo sapiens, SW-620; Colorectal cancer; 168 hrs; 50% growth inhibition relative to control; read-out: SW620 IC50
Source text: as §1, §2, §3, §4, §5, §6

T1 sequence (Q96GD4 whole entry, the tested form may be a part): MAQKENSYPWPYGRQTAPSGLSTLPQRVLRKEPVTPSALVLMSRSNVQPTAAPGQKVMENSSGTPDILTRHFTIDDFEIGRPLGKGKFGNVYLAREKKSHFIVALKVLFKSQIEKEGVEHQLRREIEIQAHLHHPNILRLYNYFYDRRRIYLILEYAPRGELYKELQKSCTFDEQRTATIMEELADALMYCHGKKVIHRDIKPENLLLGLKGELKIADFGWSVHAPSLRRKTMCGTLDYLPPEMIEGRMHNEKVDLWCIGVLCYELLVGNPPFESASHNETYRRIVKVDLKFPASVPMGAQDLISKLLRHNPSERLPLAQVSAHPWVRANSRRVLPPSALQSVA
T1 sequence (Q9NQS7 803-918 partner limits assumed): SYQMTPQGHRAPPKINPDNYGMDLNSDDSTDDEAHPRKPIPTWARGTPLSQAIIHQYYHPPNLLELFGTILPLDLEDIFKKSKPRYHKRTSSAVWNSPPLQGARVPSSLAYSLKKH

How did the IC50 (HL-60) turn out when `O=C(Cc1cc(Nc2ncnc3cc(-c4ccc(C(=O)N5CCN(CCO)CC5)cc4)ccc23)n[nH]1)Nc1cccc(F)c1` [Compound 1, N-(3-fluorophenyl)-2-(3-(7-(4-(4-(2-hydroxyethyl)piperazine-1-carbonyl)phenyl)quinazolin-4-ylamino)-1H-pyrazol-5-yl)acetamide] was run?
Its IC50 is 1.32 nM.

What about the IC50 [1] of the same molecule?
The IC50 was 0.48 nM.

What about the IC50 [2] of the same molecule?
Its IC50 is 1.93 nM.

What about the IC50 (HCT116) of the same molecule?
Its IC50 is 5.32 nM.

And the IC50 (MV-411)?
Its IC50 is 5.75 nM.

And the IC50 (Colo205)?
Its IC50 is 1.82 nM.

And the IC50 (MCF-7)?
Its IC50 is 16.9 nM.

And the IC50 (SW620)?
The IC50 was 12 nM.

Which IC50 (HL-60) does the source give for `CN1CCN(C(=O)c2ccc(-c3ccc4c(Nc5cc(CC(=O)Nc6cccc(F)c6)[nH]n5)ncnc4c3)cc2)CC1` [Compound 2, N-(3-fluorophenyl)-2-(3-(7-(4-(4-methylpiperazine-1-carbonyl)phenyl)quinazolin-4-ylamino)-1H-pyrazol-5-yl)acetamide] here?
The IC50 was 1.8 nM.

And the IC50 [1]?
Its IC50 is 0.86 nM.

And the IC50 [2]?
Its IC50 is 5.07 nM.

And the IC50 (HCT116)?
Its IC50 is 3.65 nM.

And the IC50 (MV-411)?
The IC50 was 5.2 nM.

And the IC50 (Colo205)?
Its IC50 is 3.98 nM.

What about the IC50 (MCF-7) of the same molecule?
The IC50 was 8.46 nM.

And the IC50 (SW620)?
Its IC50 is 6.3 nM.

`O=C(Cc1cc(Nc2ncnc3cc(-c4ccc(S(=O)(=O)N5CCCC5)cc4)ccc23)n[nH]1)Nc1cccc(F)c1` [Compound 3, N-(3-fluorophenyl)-2-(3-(7-(4-(pyrrolidin-1-ylsulfonyl)phenyl)quinazolin-4-ylamino)-1H-pyrazol-5-yl)acetamide] was tested. Which IC50 (HL-60) did it give?
The IC50 was 1.08 nM.

What about the IC50 [1] of the same molecule?
The IC50 was 0.47 nM.

And the IC50 [2]?
Its IC50 is 6.04 nM.

And the IC50 (HCT116)?
The IC50 was 4.58 nM.

What about the IC50 (MV-411) of the same molecule?
Its IC50 is 5.9 nM.

What about the IC50 (Colo205) of the same molecule?
Its IC50 is 2.26 nM.

What about the IC50 (MCF-7) of the same molecule?
Its IC50 is 5.62 nM.

And the IC50 (SW620)?
The IC50 was 2.15 nM.

How did the IC50 (HL-60) turn out when `O=C(Cc1cc(Nc2ncnc3cc(-c4ccc(C(=O)N5CCNCC5)cc4)ccc23)n[nH]1)Nc1cccc(F)c1` [Compound 4, N-(3-fluorophenyl)-2-(3-(7-(4-(piperazine-1-carbonyl)phenyl)quinazolin-4-ylamino)-1H-pyrazol-5-yl)acetamide] was run?
The IC50 was 1.32 nM.

What about the IC50 [1] of the same molecule?
Its IC50 is 0.71 nM.

What about the IC50 [2] of the same molecule?
Its IC50 is 3.77 nM.

What about the IC50 (HCT116) of the same molecule?
The IC50 was 5.66 nM.

What about the IC50 (MV-411) of the same molecule?
The IC50 was 6.05 nM.

And the IC50 (Colo205)?
Its IC50 is 2.11 nM.

And the IC50 (MCF-7)?
Its IC50 is 7.7 nM.

What about the IC50 (SW620) of the same molecule?
Its IC50 is 7.81 nM.

`O=C(Cc1cc(Nc2ncnc3cc(-c4ccc(S(=O)(=O)N5CC[C@H](F)C5)cc4)ccc23)n[nH]1)Nc1cccc(F)c1` [Compound 5, (S)-N-(3-fluorophenyl)-2-(3-(7-(4-(3-fluoropyrrolidin-1-ylsulfonyl)phenyl)quinazolin-4-ylamino)-1H-pyrazol-5-yl)acetamide] was tested. Which IC50 (HL-60) did it give?
The IC50 was 1.21 nM.

What about the IC50 [1] of the same molecule?
Its IC50 is 0.56 nM.

What about the IC50 [2] of the same molecule?
The IC50 was 7.1 nM.

What about the IC50 (HCT116) of the same molecule?
Its IC50 is 1.9 nM.

And the IC50 (MV-411)?
Its IC50 is 6.4 nM.

And the IC50 (Colo205)?
The IC50 was 3.86 nM.

And the IC50 (MCF-7)?
Its IC50 is 11.4 nM.

And the IC50 (SW620)?
Its IC50 is 2.17 nM.

For `O=C(Cc1cc(Nc2ncnc3cc(-c4ccc(S(=O)(=O)N5CC[C@@H](F)C5)cc4)ccc23)n[nH]1)Nc1cccc(F)c1` [Compound 6, (R)-N-(3-fluorophenyl)-2-(3-(7-(4-(3-fluoropyrrolidin-1-ylsulfonyl)phenyl)quinazolin-4-ylamino)-1H-pyrazol-5-yl)acetamide], which IC50 (HL-60) is on record?
The IC50 was 2.26 nM.

What about the IC50 [1] of the same molecule?
The IC50 was 0.63 nM.

What about the IC50 [2] of the same molecule?
Its IC50 is 6.29 nM.

What about the IC50 (HCT116) of the same molecule?
Its IC50 is 1.9 nM.

And the IC50 (MV-411)?
The IC50 was 5.79 nM.

And the IC50 (Colo205)?
The IC50 was 3.9 nM.

And the IC50 (MCF-7)?
The IC50 was 7.8 nM.

What about the IC50 (SW620) of the same molecule?
Its IC50 is 2.4 nM.
